# Values of other authors as cited in US12387828B2, “System and method for ranking options for medical treatments” (PRXCISION LLC, priority 2015, dated 2025).
# [1] = model value, multiplied by (WT/70)
smiles,measurement,setting,value
C[C@@H](O)[C@H]1C(=O)N2C(C(=O)O)=C(S[C@@H]3CN[C@H](C(=O)N(C)C)C3)[C@H](C)[C@H]12 [meropenem],CLt (total clearance),equation in CLcr (mL/min) and WT (kg),(10.2+2.08×CLcr)×(WT/70)×0.06
same,CLd (distributional clearance),[1],18.6 L/h
same,Vc (volume of the central compartment),[1],10.8 L
same,Vp (peripheral compartment volume),[1],12.6 L
